From patent US20240358668A1, “METHODS AND CO[…] AM[…] CARD[…] USING (R)-2-AMINO-3-PH[…]” (AXSOME THERAPEUTICS, INC., priority 2021, published 2024)

Tested on: participants with narcolepsy or OSA
Assay: 1-year OLE study: adverse events
Format: in vivo, human
Procedure: A 1-year open-label extension (OLE) study was performed with 374 participants to examined whether clinically significant weight loss (≥5%) in this population had favorable effects on biomarkers of cardiovascular risk compared to no such weight loss. The study measured changes in weight and BP (parent study baseline to OLE week 40) and clinical laboratory assessments (OLE baseline to week 40) in participants with narcolepsy (n=124) or OSA (n=250) who received solriamfetol at doses of 75, 150, or 300 mg/d.
Of 374 participants, 96 (25.7%) had ≥5% weight loss; among those without ≥5% weight loss (n=278), 34 (9.1% of total population) had ≥5% weight gain. Demographics were similar in those with and without weight loss (see Table 1 (demographics and baseline characteristics) and Table 2 (additional demographics and baseline characteristics)). […] Participants with weight loss had mean±SD reductions in SBP (−2.6±11.4 mmHg) and DBP (−1.0±9.0 mmHg), whereas participants without weight loss had increases of +0.65±12.5 mmHg and +1.2±8.7 mmHg, respectively (see Table 3 (blood pressure at baseline and week 40), Table 4 (systolic blood pressure (SBP) maximum changes from baseline to week 40), and Table 5 (diastolic blood pressure (DBP) maximum changes from baseline to week 40)). Adverse events are shown in Table 11 (adverse events in ≥5% of Combined Solriamfetol Participants).

[1] = Weight loss <5% at Week 40, 75 mg/d
[2] = Weight loss <5% at Week 40, 150 mg/d
[3] = Weight loss <5% at Week 40, 300 mg/d
[4] = Weight loss <5% at Week 40, all doses
[5] = Weight loss ≥5% at Week 40, 75 mg/d
[6] = Weight loss ≥5% at Week 40, 150 mg/d
[7] = Weight loss ≥5% at Week 40, 300 mg/d
[8] = Weight loss ≥5% at Week 40, all doses

## NC(=O)OC[C@H](N)Cc1ccccc1 [Solriamfetol, (R)-2-amino-3-phenylpropyl carbamate]
[1]
  AE of interest: Decreased appetite: 1(4.8) n(%)
  Common AEs: Anxiety: 0 n(%)
  Common AEs: Dizziness: 2(9.5) n(%)
  Common AEs: Dry mouth: 2(9.5) n(%)
  Common AEs: Feeling jittery: 2(9.5) n(%)
  Common AEs: Headache: 3(14.3) n(%)
  Common AEs: Influenza: 0 n(%)
  Common AEs: Insomnia: 4(19.0) n(%)
  Common AEs: Nasopharyngitis: 3(14.3) n(%)
  Common AEs: Nausea: 0 n(%)
  Common AEs: Sinusitis: 1(4.8) n(%)
  Common AEs: URTI (Upper Respiratory Tract Infection): 0 n(%)
[2]
  AE of interest: Decreased appetite: 5(4.8) n(%)
  Common AEs: Anxiety: 10(9.5) n(%)
  Common AEs: Dizziness: 2(1.9) n(%)
  Common AEs: Dry mouth: 6(5.7) n(%)
  Common AEs: Feeling jittery: 7(6.7) n(%)
  Common AEs: Headache: 9(8.6) n(%)
  Common AEs: Influenza: 3(2.9) n(%)
  Common AEs: Insomnia: 14(13.3) n(%)
  Common AEs: Nasopharyngitis: 14(13.3) n(%)
  Common AEs: Nausea: 12(11.4) n(%)
  Common AEs: Sinusitis: 2(1.9) n(%)
  Common AEs: URTI (Upper Respiratory Tract Infection): 6(5.7) n(%)
[3]
  AE of interest: Decreased appetite: 6(3.9) n(%)
  Common AEs: Anxiety: 2(1.3) n(%)
  Common AEs: Dizziness: 4(2.6) n(%)
  Common AEs: Dry mouth: 5(3.3) n(%)
  Common AEs: Feeling jittery: 7(4.6) n(%)
  Common AEs: Headache: 15(9.9) n(%)
  Common AEs: Influenza: 2(1.3) n(%)
  Common AEs: Insomnia: 3 (2.0) n(%)
  Common AEs: Nasopharyngitis: 15(9.9) n(%)
  Common AEs: Nausea: 8 (5.3) n(%)
  Common AEs: Sinusitis: 11(7.2) n(%)
  Common AEs: URTI (Upper Respiratory Tract Infection): 14(9.2) n(%)
[4]
  AE of interest: Decreased appetite: 12(4.3) n(%)
  Common AEs: Anxiety: 12(4.3) n(%)
  Common AEs: Dizziness: 8(2.9) n(%)
  Common AEs: Dry mouth: 13(4.7) n(%)
  Common AEs: Feeling jittery: 16(5.8) n(%)
  Common AEs: Headache: 27(9.7) n(%)
  Common AEs: Influenza: 5(1.8) n(%)
  Common AEs: Insomnia: 21(7.6) n(%)
  Common AEs: Nasopharyngitis: 32(11.5) n(%)
  Common AEs: Nausea: 20(7.2) n(%)
  Common AEs: Sinusitis: 14(5.0) n(%)
  Common AEs: URTI (Upper Respiratory Tract Infection): 20(7.2) n(%)
[5]
  AE of interest: Decreased appetite: 0 n(%)
  Common AEs: Anxiety: 0 n(%)
  Common AEs: Dizziness: 0 n(%)
  Common AEs: Dry mouth: 1(100) n(%)
  Common AEs: Feeling jittery: 0 n(%)
  Common AEs: Headache: 0 n(%)
  Common AEs: Influenza: 0 n(%)
  Common AEs: Insomnia: 0 n(%)
  Common AEs: Nasopharyngitis: 0 n(%)
  Common AEs: Nausea: 0 n(%)
  Common AEs: Sinusitis: 0 n(%)
  Common AEs: URTI (Upper Respiratory Tract Infection): 0 n(%)
[6]
  AE of interest: Decreased appetite: 0 n(%)
  Common AEs: Anxiety: 3(13.6) n(%)
  Common AEs: Dizziness: 2(9.1) n(%)
  Common AEs: Dry mouth: 1(4.5) n(%)
  Common AEs: Feeling jittery: 2(9.1) n(%)
  Common AEs: Headache: 5(22.7) n(%)
  Common AEs: Influenza: 1(4.5) n(%)
  Common AEs: Insomnia: 2(9.1) n(%)
  Common AEs: Nasopharyngitis: 0 n(%)
  Common AEs: Nausea: 4(18.2) n(%)
  Common AEs: Sinusitis: 3(13.6) n(%)
  Common AEs: URTI (Upper Respiratory Tract Infection): 1(4.5) n(%)
[7]
  AE of interest: Decreased appetite: 2(2.7) n(%)
  Common AEs: Anxiety: 3(4.1) n(%)
  Common AEs: Dizziness: 3(4.1) n(%)
  Common AEs: Dry mouth: 7(9.6) n(%)
  Common AEs: Feeling jittery: 1(1.4) n(%)
  Common AEs: Headache: 7(9.6) n(%)
  Common AEs: Influenza: 5(6.8) n(%)
  Common AEs: Insomnia: 5(6.8) n(%)
  Common AEs: Nasopharyngitis: 8(11.0) n(%)
  Common AEs: Nausea: 3(4.1) n(%)
  Common AEs: Sinusitis: 3(4.1) n(%)
  Common AEs: URTI (Upper Respiratory Tract Infection): 3(4.1) n(%)
[8]
  AE of interest: Decreased appetite: 2(2.1) n(%)
  Common AEs: Anxiety: 6(6.3) n(%)
  Common AEs: Dizziness: 5(5.2) n(%)
  Common AEs: Dry mouth: 9(9.4) n(%)
  Common AEs: Feeling jittery: 3(3.1) n(%)
  Common AEs: Headache: 12(12.5) n(%)
  Common AEs: Influenza: 6(6.3) n(%)
  Common AEs: Insomnia: 7(7.3) n(%)
  Common AEs: Nasopharyngitis: 8(8.3) n(%)
  Common AEs: Nausea: 7(7.3) n(%)
  Common AEs: Sinusitis: 6(6.3) n(%)
  Common AEs: URTI (Upper Respiratory Tract Infection): 4(4.2) n(%)
